# Laboratory results reported in a melting point compilation (Tetko et al.; mined from patent text by program, amines drawn as free bases though some values may be those of a salt).
row,melting point,Compound
1,290 °C,CC1=CC(=C=C2C(C#N)C(=C(C#N)C#N)OC2(C)C)C=C(C)N1c1ccccc1 (centres undefined)
2,168 to 170 °C,CCOC(=O)c1c(C)nc2c(c1NCCCN1CCOCC1)NC(=O)CN2
3,191 to 193 °C,Nc1sc2c(c1C(=O)c1ccccn1)CCCC2
4,173 to 175 °C,CC(C)N(CCCN1C(=O)/C(=N/NC(N)=O)c2ccccc21)C(C)C
5,193 to 195 °C,COC(=O)c1c(N)ncn1C1c2ccccc2CCC1(C)C (centres undefined)
6,150 to 152 °C,O=C(NCCCCC(NC(=O)OCC1c2ccccc2-c2ccccc21)C(=O)Oc1c(F)c(F)c(F)c(F)c1F)OCC1c2ccccc2Oc2ccccc21 (centres undefined)
7,132 to 135 °C,CCSC1(CCO)C(=O)Nc2ccc(Cl)cc21 (centres undefined)
8,124 to 125 °C,CCOC(=O)Cn1nc2ccc(OCCCN3CCC(OC(c4ccccc4)c4ccccc4)CC3)nn2c1=O
9,204 °C,CC(C)n1nc(-c2cnc(N)nc2-c2cccnc2)ccc1=O
10,240 to 242 °C,CC(=O)NC[C@H]1CN(c2ccc(C3CCN(S(C)(=O)=O)CC3)c(F)c2)C(=O)O1
11,106 to 107 °C,COc1ccc(C2CC(=O)N(Cc3ccc4ccc(Cl)cc4n3)C2)cc1OC1CCCC1 (centres undefined)
12,162 to 164 °C,CN1CCCCC1CCc1ccccc1NC(=O)c1ccc([N+](=O)[O-])cc1 (centres undefined)
13,120 to 122 °C,C#CCNC(=O)N1CC(Oc2ccc(Br)cc2)C1
14,141 to 142 °C,BrC(Br)(Br)c1nnnn1-c1ccccc1
15,129 to 130 °C,CCOC(=O)C1CCCCCCC(=O)C(=O)N1 (centres undefined)
16,158 to 160 °C,Cc1nnc2c(C(C)Oc3ccc(Cl)cc3)ccnn12 (centres undefined)
17,130 °C,Cc1cnc(-c2ccc(C(F)(F)F)cc2)n1C
18,85 to 86 °C,CC1OC(n2c(Br)nc3cc(Cl)c(Cl)cc32)C(O)C1O (centres undefined)
19,91 to 93 °C,Cc1ccccc1-c1cc(-n2cncn2)ncc1C(=O)N(C)Cc1cc(C(F)(F)F)cc(C(F)(F)F)c1
20,130 °C,CC(C)(Oc1ccc(C(=O)c2ccccc2)cc1)C(=O)O
21,158 to 160 °C,COC(=S)c1nc(C)c(N)nc1N
22,255 to 257 °C,NC(=O)c1cc(-c2ccc(Cl)cc2)sc1N
23,223 to 225 °C,Cn1c(COc2ccc(CC3SC(=O)NC3=O)cc2)nc2cccnc21 (centres undefined)
24,88 to 90 °C,CCCC(=O)c1cnc2c(OCCN(C)C)cccc2c1Nc1ccccc1C

row,melting point,Compound
1,111 to 113 °C,CC1=Nc2ccccc2N(Cc2ccccc2)C(=O)C1
2,212 to 218 °C,O=C1c2c(-c3ccccc3)noc2CCC1CCCN1CCC(n2c(=O)[nH]c3ccccc32)CC1 (centres undefined)
3,116 to 117 °C,COC(=O)c1cccc(S(=O)(=O)C2CCN(CCc3ccc(F)cc3F)CC2)c1
4,128 to 131 °C,CCc1nc2c(cnn2CC)c(NC2CCOCC2)c1CNC(=O)c1cccc(C(=O)NCc2ccc(F)c(-c3cccc(CN4CCCCC4)c3)c2)c1
5,310 °C,O=C1c2c(Cl)cccc2-c2n[nH]c3cccc1c23
6,207 to 209 °C,CC(C)(C(=O)O)c1ccc2cc(OCc3ccc4ccccc4n3)ccc2c1
7,128 to 130 °C,CCCCCC(=O)NCCc1ccc(S(=O)(=O)NC(=O)c2ccc(C(=O)NCC(=O)OC)nc2)cc1
8,95 to 96.5 °C,COc1ncc([N+](=O)[O-])cc1C
9,109 to 111 °C,COc1ccccc1C1=CC(C)(C)Oc2ccc(C#N)cc21
10,208 °C,O=C(Nc1ccc(C[C@H](NS(=O)(=O)N2CCCCC2)C(=O)O)cc1)c1c(Cl)cncc1Cl
11,135 to 142 °C,O=C(Nc1ccc(-n2nc(C3CC3)cc2C2CC2)cc1)c1cccc(F)c1F
12,113 to 115 °C,CCc1nc(/C=C/c2cn(-c3ccccc3)nc2OCc2ccc(OCc3nc(-c4cccc(NS(C)(=O)=O)c4)oc3C)c(OC)c2)cs1
13,99 °C,O=[N+]([O-])C=C1SCCCN1S(=O)(=O)CCCCl
14,32 °C,Cc1cccc(-c2nc(CI)c(C)o2)c1
15,105 to 108 °C,Cn1c(=O)c2c(ncn2CN2CCCC2)n(C)c1=O
16,104 to 106 °C,CCCc1nn(C)c2c(=O)n(CCOc3ccc(SC(C)(C)C(=O)O)cc3)c(CC)nc12
17,207 °C,COc1ccc(C(=O)N2CCCCc3cc(C4=NNC(=O)SC4C)ccc32)cc1OC (centres undefined)
18,64 to 65 °C,COCc1cc2ccccc2oc1=Nc1ccccc1
19,90 to 91 °C,O=[N+]([O-])c1ccc(C=Cc2ccc(N3CCOCCOCCOCCOCCOCC3)cc2)c([N+](=O)[O-])c1
20,213 °C,COc1nc(Cl)nc(N)c1-c1ccccc1
21,144 to 146 °C,CCCc1c(OCc2ccc(C=CC(=O)O)cc2OC)ccc(C(C)=O)c1O
22,194 °C,N#CCc1ccc(NC(=O)c2ccc(C=O)cc2)cc1
23,79 to 81 °C,COC(=O)c1ccccc1CS(N)(=O)=O
24,152 to 155 °C,CCC(C)C(NC(=O)OCc1ccccc1)C(=O)NC(Cc1c[nH]c2ccccc12)C(=O)OC (centres undefined)

row,melting point,Compound
1,143 to 147 °C,CCC(C(=O)c1ccc(NS(C)(=O)=O)cc1)c1ccccc1 (centres undefined)
2,136 °C,CCNC1=CC(=O)CC1
3,152 to 153 °C,CC(=O)N(c1ccc(O)cc1)C(C)C
4,140 °C,Cc1cc(-n2ccnc2)c2cccc(OCc3c(Cl)ccc(S(=O)(=O)N4CCC[C@H]4C(=O)NCC4CCN(CCC(=O)O)CC4)c3Cl)c2n1
5,67 to 69 °C,Cc1ccc(S(=O)(=O)OC(C)COc2c([N+](=O)[O-])ccc(F)c2F)cc1 (centres undefined)
6,134 to 136 °C,O=S(=O)(NCCCCOc1ccc(-n2ccnc2)cc1)c1ccc(Br)cc1
7,91 to 92 °C,O=C(Cc1ccccc1)NCCc1ccccc1
8,155 to 156 °C,O=C(Nc1c[nH]nc1C(=O)NCCO)c1ccccn1
9,156 to 158 °C,CC(C)CCS(=O)(=O)NC(=O)/C=C/c1cc(OCC2CC2)nn1Cc1ccc(C(F)(F)F)cc1Cl
10,136 °C,O=C(Nc1nc(C(Cl)(Cl)Cl)ns1)c1ccc(Cl)cc1Cl
11,220 to 223 °C,O=C(/C=C/c1ccc2ccccc2c1)Nc1cc(Cl)ccc1NS(=O)(=O)c1ccccc1
12,63 to 64 °C,Cc1cccc(Nc2ccccc2C(=O)OCc2ccccn2)c1C
13,49 to 51 °C,CC(C)COc1ccccc1C(=N)N
14,218 to 222 °C,CN(CCC#N)c1nc(Nc2cccc(NS(C)(=O)=O)c2)nc2[nH]cnc12
15,215 °C,CC(C)n1nc(-c2cnc(N)nc2-c2ccco2)ccc1=O
16,163 to 165 °C,CCOc1cc(C(CC#N)N2C(=O)c3ccc4ccccc4c3C2=O)ccc1OC (centres undefined)
17,63 to 64 °C,CCOc1ccc(C=CC(=O)c2c(OC)cc(OC)cc2OP(=O)(O)O)cc1
18,299 °C,Cn1cc(-c2cc(-c3cnc4[nH]ccc4c3)ccn2)n(-c2ccc(C(C)(C)C(N)=O)cc2)c1=O
19,95 to 100 °C,CCCCc1nc2c(N)nc3cccnc3c2n1CCCCN1CC(C(N)=O)=CC=C1N1CCOCC1
20,126 to 128 °C,COC(=O)C(Cc1ccc(OCCc2nc(-c3ccccc3)oc2C)cc1)C(=O)NC(C)=O (centres undefined)
21,174 to 176 °C,CC1(C)C[C@@H](n2c(=O)c(Cl)nc3ccccc32)c2cc(C#N)ccc2O1
22,> 250 °C,COc1cccc(-c2cc(F)c3c(c2)CC(CN)O3)c1 (centres undefined)
23,92 to 94 °C,CCCCCN1C(=O)C2CC(c3ccc(N)cc3)(C2)C1=O
24,128 °C,Cn1nc(-c2ccc(Cl)cc2Cl)cc1O

row,melting point,Compound
1,104 to 106 °C,CCCCC1(C(=O)Nc2ccc(Oc3ccc(Cl)cc3)c(C(F)(F)F)c2)CC1
2,168 to 170 °C,O=c1[nH][nH]c(=O)n1CCCCl
3,131 to 132 °C,CC(C)N(CCC(CCN(C(C)C)C(C)C)(C(N)=O)c1ccccc1C(F)(F)F)C(C)C
4,309 to 317 °C,CCc1cc(O)c2c(ccc3nc[nH]c32)n1
5,100 to 102 °C,CC(C)(C)c1cc(/C=C/C(=O)COc2ccccc2)cc(C(C)(C)C)c1O
6,98 to 100 °C,CCOc1cc(Cc2ccc(Cl)cc2Cl)nc(-c2ccc3c(n2)CCCC3)n1
7,119 to 120 °C,CCOC(=O)C=Cc1csc(-c2ccc(OC)c(C(C)(C)C)c2)c1
8,61.3 to 61.9 °C,Cc1cc(C(=O)N2CCCC2)ccc1[N+](=O)[O-]
9,205 to 206 °C,CC12C=CC(=O)C=C1CCC1C2=CCC2(C)C1CCC2(O)C(=O)CCl (centres undefined)
10,244 to 246 °C,CCCCc1nc2cc(Cl)c(Cl)cc2n1Cc1ccc(C(=O)O)cc1
11,53 to 55 °C,C=CCN(CC=C)c1cc(CCl)nc(N)n1
12,152 °C,Cc1c(-c2ccccc2)nc2n1C(C)(C)Cc1ccccc1C2OC1CCN(C)CC1 (centres undefined)
13,169 to 170 °C,O=[N+]([O-])c1ccc(Cn2c(S(=O)(=O)C(F)(F)C(F)F)nc(-c3ccc(F)cc3)c2-c2ccc(F)cc2)cc1
14,203 to 205 °C,COc1ccc(Nc2nc(-c3cc(-c4ccccc4)no3)cs2)nc1
15,134 to 135 °C,CCCc1c(OCc2cccn3c(=O)c(CC(=O)OCC)cnc23)ccc(C(C)=O)c1O
16,200 °C,O=C(c1ccc(=O)[nH]c1)n1ccnc1
17,119 to 120 °C,O=CC(=Cc1ccc(OCc2ccccc2)cc1)C(C=O)=Cc1ccc(OCc2ccccc2)cc1
18,146 to 147 °C,COc1cc2c(cc1O)CCN(Cc1ccc(OC)c(OC)c1)C2
19,125 to 127 °C,CC(C)(C)c1ccc(OP(Oc2ccc(C(C)(C)C)cc2C(C)(C)C)c2cccc3ccccc23)c(C(C)(C)C)c1
20,160 to 162 °C,Nc1ccc2c(c1)CCN(C(=O)C(F)(F)F)CC2
21,188 °C,NS(=O)(=O)c1ccc(-c2oc3cc(F)ccc3c(=O)c2-c2ccccc2F)cc1

row,Compound,melting point
1,COc1cc(OC)c(C2=NC(NC(=O)Nc3ccccc3C)C(=O)N(C)c3ccccc32)c(OC)c1 (centres undefined),50 °C
2,CC(C)C(=O)NC1CCc2c(c3cc(C(N)=O)ccc3n2Cc2cccc(F)c2)C1 (centres undefined),192 to 194 °C
3,CC(=O)OCC1=CC(=O)C=C2CCC3C4CCC(=O)C4(C)CCC3C21C (centres undefined),121 to 123 °C
4,CNC(=O)Oc1ccccc1OC,90 to 92 °C
5,Cc1c(C2=CCC(Cc3ccccc3)(N(C)C)CC2)[nH]c2ccc(F)cc12 (centres undefined),62 to 65 °C
6,CCCCC(CC)COc1ccc(C=C2C(=O)C3CCN2CC3)cc1 (centres undefined),37 °C
